# What was measured:
# Experiment in all cases: KINOMEscan competition binding
# Details in all cases: compound 10.0 µM
# [1] = target: EPHA7 (human) (UniProt Q15375)
# [2] = target: CDK18 (human) (UniProt Q07002)
# [3] = target: MYLK2 (human) (UniProt Q9H1R3)
# [4] = target: CAMK2B (human) (UniProt Q13554)
# [5] = target: STK35 (human) (UniProt Q8TDR2)
# [6] = target: CDKL2 (human) (UniProt Q92772)
# [7] = target: TYK2 JH1 catalytic (human) (UniProt P29597)
# [8] = target: CDK17 (human) (UniProt Q00537)
# [9] = target: RPS6KA6 KD1 (human) (UniProt Q9UK32)
# [10] = target: NTRK2 (human) (UniProt Q16620)
# [11] = target: MAPKAPK5 (human) (UniProt Q8IW41)
# [12] = target: BRSK1 (human) (UniProt Q8TDC3)
# [13] = target: MAPK10 (human) (UniProt P53779)
# [14] = tested on: ABL1 (human), P00519 [M351T]
# [15] = tested on: EGFR (human), P00533 [G719C; 746-750 del]
# [16] = target: MET (human) (UniProt P08581)
# [17] = target: NEK5 (human) (UniProt Q6P3R8)
# [18] = tested on: EGFR (human), P00533 [752-759 del]
# [19] = target: PRKG1 (human) (UniProt Q13976)
# [20] = target: TSSK1B (human) (UniProt Q9BXA7)
# [21] = target: TLK2 (human) (UniProt Q86UE8)
# [22] = target: CDK5 (human) (UniProt Q00535)
# [23] = target: FES (human) (UniProt P07332)
# [24] = target: PLK3 (human) (UniProt Q9H4B4)
# [25] = target: MAP3K9 (human) (UniProt P80192)
# [26] = target: NUAK1 (human) (UniProt O60285)
# [27] = target: NLK (human) (UniProt Q9UBE8)
# [28] = target: PTK2 (human) (UniProt Q05397)
# [29] = target: NEK1 (human) (UniProt Q96PY6)
# [30] = target: IKBKE (human) (UniProt Q14164)
# [31] = target: SIK2 (human) (UniProt Q9H0K1)
# [32] = target: NUAK2 (human) (UniProt Q9H093)
# [33] = target: ROCK2 (human) (UniProt O75116)
# [34] = target: ACVRL1 (human) (UniProt P37023)
# [35] = target: PRKCH (human) (UniProt P24723)
# [36] = target: MARK3 (human) (UniProt P27448)
# [37] = target: INSR (human) (UniProt P06213)
# [38] = target: EPHB4 (human) (UniProt P54760)
# [39] = target: DDR1 (human) (UniProt Q08345)
# [40] = tested on: RET (human), P07949 [V804L]
# [41] = target: STK10 (human) (UniProt O94804)
# [42] = target: RPS6KA3 KD1 (human) (UniProt P51812)
# Sequence of ROCK2 (human) (O75116 whole entry, looked up): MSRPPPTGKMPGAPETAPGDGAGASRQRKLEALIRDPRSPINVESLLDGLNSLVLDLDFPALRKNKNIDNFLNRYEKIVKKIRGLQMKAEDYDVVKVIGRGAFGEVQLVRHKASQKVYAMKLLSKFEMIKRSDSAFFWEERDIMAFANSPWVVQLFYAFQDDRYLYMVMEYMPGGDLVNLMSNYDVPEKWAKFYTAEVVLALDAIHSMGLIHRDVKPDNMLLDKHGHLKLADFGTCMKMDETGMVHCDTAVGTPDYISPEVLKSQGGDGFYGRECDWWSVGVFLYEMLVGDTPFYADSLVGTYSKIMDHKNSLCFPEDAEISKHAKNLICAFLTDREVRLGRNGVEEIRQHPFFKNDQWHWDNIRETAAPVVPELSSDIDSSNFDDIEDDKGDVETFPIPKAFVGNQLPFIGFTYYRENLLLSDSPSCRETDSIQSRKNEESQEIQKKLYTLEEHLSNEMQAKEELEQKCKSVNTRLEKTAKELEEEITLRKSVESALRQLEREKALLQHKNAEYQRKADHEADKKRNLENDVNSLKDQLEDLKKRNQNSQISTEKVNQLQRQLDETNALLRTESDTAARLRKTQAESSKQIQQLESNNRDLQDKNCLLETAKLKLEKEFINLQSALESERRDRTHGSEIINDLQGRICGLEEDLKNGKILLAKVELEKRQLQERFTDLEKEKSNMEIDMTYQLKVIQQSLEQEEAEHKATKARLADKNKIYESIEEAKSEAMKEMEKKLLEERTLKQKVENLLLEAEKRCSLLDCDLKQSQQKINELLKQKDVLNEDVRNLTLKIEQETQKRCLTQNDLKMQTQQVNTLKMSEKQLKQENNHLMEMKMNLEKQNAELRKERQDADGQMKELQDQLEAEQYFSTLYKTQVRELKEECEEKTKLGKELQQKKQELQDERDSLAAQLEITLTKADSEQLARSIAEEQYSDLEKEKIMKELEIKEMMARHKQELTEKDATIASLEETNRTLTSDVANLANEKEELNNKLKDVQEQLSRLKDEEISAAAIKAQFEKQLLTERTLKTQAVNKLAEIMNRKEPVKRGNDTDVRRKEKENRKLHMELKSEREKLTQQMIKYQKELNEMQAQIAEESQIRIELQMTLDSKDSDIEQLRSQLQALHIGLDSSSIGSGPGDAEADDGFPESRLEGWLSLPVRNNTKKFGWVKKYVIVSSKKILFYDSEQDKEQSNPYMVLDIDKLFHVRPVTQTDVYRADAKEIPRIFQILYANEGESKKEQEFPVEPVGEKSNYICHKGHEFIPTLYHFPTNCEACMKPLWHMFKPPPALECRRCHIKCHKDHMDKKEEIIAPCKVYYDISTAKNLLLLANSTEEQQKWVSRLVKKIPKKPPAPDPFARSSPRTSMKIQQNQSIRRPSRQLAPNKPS
# Sequence of BRSK1 (human) (Q8TDC3 whole entry, looked up): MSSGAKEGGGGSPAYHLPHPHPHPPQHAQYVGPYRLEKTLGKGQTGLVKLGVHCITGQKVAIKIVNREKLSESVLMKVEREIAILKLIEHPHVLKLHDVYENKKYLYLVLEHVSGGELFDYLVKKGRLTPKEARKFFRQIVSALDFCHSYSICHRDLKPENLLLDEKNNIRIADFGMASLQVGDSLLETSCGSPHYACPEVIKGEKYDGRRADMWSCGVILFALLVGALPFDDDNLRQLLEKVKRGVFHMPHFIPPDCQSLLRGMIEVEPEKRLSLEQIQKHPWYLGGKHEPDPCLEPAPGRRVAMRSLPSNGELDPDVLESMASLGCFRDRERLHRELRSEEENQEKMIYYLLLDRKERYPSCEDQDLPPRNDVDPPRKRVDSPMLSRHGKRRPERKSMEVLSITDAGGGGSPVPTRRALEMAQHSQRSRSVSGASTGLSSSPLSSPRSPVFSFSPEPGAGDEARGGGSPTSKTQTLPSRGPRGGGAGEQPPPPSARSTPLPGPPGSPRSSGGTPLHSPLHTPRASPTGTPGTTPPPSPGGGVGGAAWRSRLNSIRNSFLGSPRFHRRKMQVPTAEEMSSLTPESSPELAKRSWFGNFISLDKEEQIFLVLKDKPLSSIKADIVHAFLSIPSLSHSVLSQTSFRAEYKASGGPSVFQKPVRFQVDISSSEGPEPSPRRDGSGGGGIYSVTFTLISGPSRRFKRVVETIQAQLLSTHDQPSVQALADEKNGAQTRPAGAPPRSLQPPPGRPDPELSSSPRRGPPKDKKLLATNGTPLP
# Sequence of STK35 (human) (Q8TDR2 whole entry, looked up): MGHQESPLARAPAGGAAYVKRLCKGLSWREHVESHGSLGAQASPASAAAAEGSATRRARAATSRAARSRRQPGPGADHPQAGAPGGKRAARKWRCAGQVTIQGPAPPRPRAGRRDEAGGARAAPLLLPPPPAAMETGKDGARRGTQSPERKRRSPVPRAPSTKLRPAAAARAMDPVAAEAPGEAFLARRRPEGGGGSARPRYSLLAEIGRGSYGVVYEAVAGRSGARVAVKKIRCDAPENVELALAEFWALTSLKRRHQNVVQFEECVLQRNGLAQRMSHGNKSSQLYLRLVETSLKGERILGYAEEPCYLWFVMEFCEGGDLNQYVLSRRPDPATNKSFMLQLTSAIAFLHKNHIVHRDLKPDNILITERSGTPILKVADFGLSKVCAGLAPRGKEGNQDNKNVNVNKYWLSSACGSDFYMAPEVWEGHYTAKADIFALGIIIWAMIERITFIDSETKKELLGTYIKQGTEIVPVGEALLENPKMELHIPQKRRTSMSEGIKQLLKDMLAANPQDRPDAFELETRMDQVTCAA
# Sequence of PTK2 (human) (Q05397 whole entry, looked up): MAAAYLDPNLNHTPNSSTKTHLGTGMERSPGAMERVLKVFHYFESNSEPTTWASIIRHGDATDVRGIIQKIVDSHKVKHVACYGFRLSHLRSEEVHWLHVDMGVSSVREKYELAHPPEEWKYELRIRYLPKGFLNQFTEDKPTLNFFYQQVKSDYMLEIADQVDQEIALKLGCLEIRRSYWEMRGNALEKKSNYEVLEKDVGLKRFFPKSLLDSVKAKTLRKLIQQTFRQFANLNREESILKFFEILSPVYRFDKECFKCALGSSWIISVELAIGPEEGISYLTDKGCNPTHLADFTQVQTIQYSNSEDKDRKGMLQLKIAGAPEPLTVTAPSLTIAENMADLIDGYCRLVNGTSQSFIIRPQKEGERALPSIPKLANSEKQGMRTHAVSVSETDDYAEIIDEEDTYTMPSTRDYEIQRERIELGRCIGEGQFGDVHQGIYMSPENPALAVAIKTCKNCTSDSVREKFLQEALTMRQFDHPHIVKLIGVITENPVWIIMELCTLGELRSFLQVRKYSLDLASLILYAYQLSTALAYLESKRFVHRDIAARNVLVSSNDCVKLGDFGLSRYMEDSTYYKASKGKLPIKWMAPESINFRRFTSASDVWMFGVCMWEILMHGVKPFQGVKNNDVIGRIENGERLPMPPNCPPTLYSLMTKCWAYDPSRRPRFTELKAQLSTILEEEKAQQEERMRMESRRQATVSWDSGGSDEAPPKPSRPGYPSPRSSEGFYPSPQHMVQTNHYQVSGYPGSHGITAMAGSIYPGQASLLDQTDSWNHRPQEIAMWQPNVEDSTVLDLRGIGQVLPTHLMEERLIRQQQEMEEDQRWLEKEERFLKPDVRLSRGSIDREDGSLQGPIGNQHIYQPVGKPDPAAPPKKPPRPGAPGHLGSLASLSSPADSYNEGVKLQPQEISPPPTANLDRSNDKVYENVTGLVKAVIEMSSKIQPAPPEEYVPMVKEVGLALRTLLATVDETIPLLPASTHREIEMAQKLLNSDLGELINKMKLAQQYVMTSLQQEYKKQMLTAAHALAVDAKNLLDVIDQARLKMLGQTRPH
# Sequence of SIK2 (human) (Q9H0K1 whole entry, looked up): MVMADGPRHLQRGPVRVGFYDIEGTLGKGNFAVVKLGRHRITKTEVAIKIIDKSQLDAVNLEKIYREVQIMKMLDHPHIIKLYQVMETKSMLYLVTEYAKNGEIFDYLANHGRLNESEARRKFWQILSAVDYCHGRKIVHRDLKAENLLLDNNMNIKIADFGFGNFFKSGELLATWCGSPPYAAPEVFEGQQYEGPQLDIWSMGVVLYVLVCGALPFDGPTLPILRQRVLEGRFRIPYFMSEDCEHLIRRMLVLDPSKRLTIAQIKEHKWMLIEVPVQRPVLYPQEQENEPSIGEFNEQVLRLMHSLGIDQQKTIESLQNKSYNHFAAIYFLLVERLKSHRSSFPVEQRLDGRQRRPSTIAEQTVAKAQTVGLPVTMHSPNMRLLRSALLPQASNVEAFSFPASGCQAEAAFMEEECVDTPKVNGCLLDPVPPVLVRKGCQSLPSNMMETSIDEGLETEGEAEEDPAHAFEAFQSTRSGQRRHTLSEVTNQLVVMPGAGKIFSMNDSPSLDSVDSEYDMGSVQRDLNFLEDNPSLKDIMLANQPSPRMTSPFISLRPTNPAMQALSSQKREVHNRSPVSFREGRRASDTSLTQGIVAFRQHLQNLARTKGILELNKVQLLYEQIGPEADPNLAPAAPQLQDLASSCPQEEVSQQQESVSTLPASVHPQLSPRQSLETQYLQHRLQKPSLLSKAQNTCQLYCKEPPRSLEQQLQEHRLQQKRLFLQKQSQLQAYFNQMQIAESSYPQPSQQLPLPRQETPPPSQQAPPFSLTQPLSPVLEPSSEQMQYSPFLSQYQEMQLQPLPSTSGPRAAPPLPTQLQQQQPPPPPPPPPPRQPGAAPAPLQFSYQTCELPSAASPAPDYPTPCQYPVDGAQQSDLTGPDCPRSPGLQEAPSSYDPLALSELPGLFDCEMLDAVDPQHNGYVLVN
# Sequence of TSSK1B (human) (Q9BXA7 whole entry, looked up): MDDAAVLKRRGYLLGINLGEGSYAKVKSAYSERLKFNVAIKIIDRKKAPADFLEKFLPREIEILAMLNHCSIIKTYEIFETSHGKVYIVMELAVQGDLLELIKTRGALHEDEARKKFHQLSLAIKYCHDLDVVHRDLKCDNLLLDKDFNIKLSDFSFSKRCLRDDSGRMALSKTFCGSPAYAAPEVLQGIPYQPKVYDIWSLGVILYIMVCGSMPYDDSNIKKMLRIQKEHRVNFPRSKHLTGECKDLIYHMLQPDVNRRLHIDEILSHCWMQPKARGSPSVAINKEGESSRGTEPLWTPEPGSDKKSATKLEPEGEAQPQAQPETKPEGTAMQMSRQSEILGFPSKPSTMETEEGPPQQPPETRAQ
structure (smiles),measurement,setting,value
CN1C(=O)c2ccccc2N(C)c2nc(NS(=O)(=O)c3ccc(N)cc3)ncc21,"kinase still bound, per cent of control",[1],100%
same,"kinase still bound, per cent of control",[2],100%
same,"kinase still bound, per cent of control",[3],88%
same,"kinase still bound, per cent of control",[4],100%
same,"kinase still bound, per cent of control",[5],100%
same,"kinase still bound, per cent of control",[6],100%
same,"kinase still bound, per cent of control",[7],38%
same,"kinase still bound, per cent of control",[8],100%
same,"kinase still bound, per cent of control",[9],100%
same,"kinase still bound, per cent of control",[10],53%
same,"kinase still bound, per cent of control",[11],100%
same,"kinase still bound, per cent of control",[12],97%
same,"kinase still bound, per cent of control",[13],100%
same,"kinase still bound, per cent of control",[14],96%
same,"kinase still bound, per cent of control",[15],100%
same,"kinase still bound, per cent of control",[16],100%
same,"kinase still bound, per cent of control",[17],100%
same,"kinase still bound, per cent of control",[18],100%
same,"kinase still bound, per cent of control",[19],100%
same,"kinase still bound, per cent of control",[20],100%
same,"kinase still bound, per cent of control",[21],100%
same,"kinase still bound, per cent of control",[22],100%
same,"kinase still bound, per cent of control",[23],90%
same,"kinase still bound, per cent of control",[24],100%
same,"kinase still bound, per cent of control",[25],100%
same,"kinase still bound, per cent of control",[26],86%
same,"kinase still bound, per cent of control",[27],100%
same,"kinase still bound, per cent of control",[28],100%
same,"kinase still bound, per cent of control",[29],100%
same,"kinase still bound, per cent of control",[30],100%
same,"kinase still bound, per cent of control",[31],89%
same,"kinase still bound, per cent of control",[32],70%
same,"kinase still bound, per cent of control",[33],100%
same,"kinase still bound, per cent of control",[34],100%
same,"kinase still bound, per cent of control",[35],86%
same,"kinase still bound, per cent of control",[36],100%
same,"kinase still bound, per cent of control",[37],95%
same,"kinase still bound, per cent of control",[38],100%
same,"kinase still bound, per cent of control",[39],100%
same,"kinase still bound, per cent of control",[40],100%
same,"kinase still bound, per cent of control",[41],100%
same,"kinase still bound, per cent of control",[42],100%
COc1cc(N2CCN(C)CC2)ccc1Nc1ncc2c(n1)N(C)c1ccccc1N(C)C2=O,"kinase still bound, per cent of control",[1],100%
same,"kinase still bound, per cent of control",[2],100%
same,"kinase still bound, per cent of control",[3],100%
same,"kinase still bound, per cent of control",[4],92%
same,"kinase still bound, per cent of control",[5],100%
same,"kinase still bound, per cent of control",[6],81%
same,"kinase still bound, per cent of control",[7],94%
same,"kinase still bound, per cent of control",[8],100%
same,"kinase still bound, per cent of control",[9],100%
same,"kinase still bound, per cent of control",[10],100%
same,"kinase still bound, per cent of control",[11],100%
same,"kinase still bound, per cent of control",[12],84%
same,"kinase still bound, per cent of control",[13],85%
same,"kinase still bound, per cent of control",[14],78%
same,"kinase still bound, per cent of control",[15],61%
same,"kinase still bound, per cent of control",[16],90%
same,"kinase still bound, per cent of control",[17],100%
same,"kinase still bound, per cent of control",[18],100%
same,"kinase still bound, per cent of control",[19],100%
same,"kinase still bound, per cent of control",[20],53%
same,"kinase still bound, per cent of control",[21],96%
same,"kinase still bound, per cent of control",[22],100%
same,"kinase still bound, per cent of control",[23],100%
same,"kinase still bound, per cent of control",[24],100%
same,"kinase still bound, per cent of control",[25],100%
same,"kinase still bound, per cent of control",[26],100%
same,"kinase still bound, per cent of control",[27],100%
same,"kinase still bound, per cent of control",[28],85%
same,"kinase still bound, per cent of control",[29],96%
same,"kinase still bound, per cent of control",[30],100%
same,"kinase still bound, per cent of control",[31],89%
same,"kinase still bound, per cent of control",[32],100%
same,"kinase still bound, per cent of control",[33],50%
same,"kinase still bound, per cent of control",[34],100%
same,"kinase still bound, per cent of control",[35],76%
same,"kinase still bound, per cent of control",[36],98%
same,"kinase still bound, per cent of control",[37],52%
same,"kinase still bound, per cent of control",[38],100%
same,"kinase still bound, per cent of control",[39],93%
same,"kinase still bound, per cent of control",[40],100%
same,"kinase still bound, per cent of control",[41],100%
same,"kinase still bound, per cent of control",[42],92%
